Experiment [1] is described as follows: viability loss in HEK293 cells – cell-based, plate reader, cherry-picked samples, cytotoxicity control, dose response (AID 743446). It is filed as functional.
Experiment [2] is described as follows: Trypanosoma cruzi growth suppression in host cells – NIH3T3 host cells, beta-gal luminescence, confirmation (AID 2044).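 Also: intracellular parasites grown in NIH/3T3 mouse fibroblasts as host cells; luminescent beta-galactosidase reporter signal from transgenic T. cruzi replicating inside host cells; inhibitors lower the luminescence signal.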 It is filed as functional, cell-based.
The target in the next experiment is T1, Protein RecA (Mycobacterium tuberculosis, UniProt P9WHJ3).
T1 sequence (P9WHJ3 whole entry): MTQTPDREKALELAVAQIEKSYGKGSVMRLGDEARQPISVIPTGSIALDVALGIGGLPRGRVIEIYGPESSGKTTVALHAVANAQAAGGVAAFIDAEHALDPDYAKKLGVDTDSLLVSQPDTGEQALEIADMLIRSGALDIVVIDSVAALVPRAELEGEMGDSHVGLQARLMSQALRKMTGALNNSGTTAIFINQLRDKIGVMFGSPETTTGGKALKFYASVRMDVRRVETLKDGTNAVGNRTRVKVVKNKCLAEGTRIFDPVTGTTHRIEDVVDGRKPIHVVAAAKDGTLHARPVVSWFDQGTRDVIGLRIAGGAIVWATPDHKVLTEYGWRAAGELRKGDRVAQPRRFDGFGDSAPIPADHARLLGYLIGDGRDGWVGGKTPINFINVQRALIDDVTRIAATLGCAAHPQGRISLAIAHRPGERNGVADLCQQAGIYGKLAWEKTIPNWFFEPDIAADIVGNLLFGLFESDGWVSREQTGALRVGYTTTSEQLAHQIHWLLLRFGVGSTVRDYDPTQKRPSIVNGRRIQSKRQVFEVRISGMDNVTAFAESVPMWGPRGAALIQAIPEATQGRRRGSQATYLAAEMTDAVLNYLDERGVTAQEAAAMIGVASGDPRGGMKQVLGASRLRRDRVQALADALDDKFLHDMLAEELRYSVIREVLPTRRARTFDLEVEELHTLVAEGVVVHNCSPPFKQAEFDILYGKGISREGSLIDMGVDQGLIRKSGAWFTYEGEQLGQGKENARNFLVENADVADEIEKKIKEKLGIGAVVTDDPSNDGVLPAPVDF
Nature of the experiment: Fluorescence Cell-Free Homogeneous Dose Retest to Identify Inhibitors of RecA-Intein Splicing Activity. [Related pubchem assays (depositor defined):AID2097, AID2223, AID489010, AID492950]. Format: functional.

A short description of experiment [3]: A549 cell cytotoxicity, dose response, cytotoxicity control, plate reader, cherry-pick, antagonist series (AID 743412). Format: functional, cell-based.
Experiment [4] addresses T2, Replicative DNA helicase DnaB (Mycobacterium tuberculosis, UniProt P9WMR3).
T2 sequence (P9WMR3 whole entry): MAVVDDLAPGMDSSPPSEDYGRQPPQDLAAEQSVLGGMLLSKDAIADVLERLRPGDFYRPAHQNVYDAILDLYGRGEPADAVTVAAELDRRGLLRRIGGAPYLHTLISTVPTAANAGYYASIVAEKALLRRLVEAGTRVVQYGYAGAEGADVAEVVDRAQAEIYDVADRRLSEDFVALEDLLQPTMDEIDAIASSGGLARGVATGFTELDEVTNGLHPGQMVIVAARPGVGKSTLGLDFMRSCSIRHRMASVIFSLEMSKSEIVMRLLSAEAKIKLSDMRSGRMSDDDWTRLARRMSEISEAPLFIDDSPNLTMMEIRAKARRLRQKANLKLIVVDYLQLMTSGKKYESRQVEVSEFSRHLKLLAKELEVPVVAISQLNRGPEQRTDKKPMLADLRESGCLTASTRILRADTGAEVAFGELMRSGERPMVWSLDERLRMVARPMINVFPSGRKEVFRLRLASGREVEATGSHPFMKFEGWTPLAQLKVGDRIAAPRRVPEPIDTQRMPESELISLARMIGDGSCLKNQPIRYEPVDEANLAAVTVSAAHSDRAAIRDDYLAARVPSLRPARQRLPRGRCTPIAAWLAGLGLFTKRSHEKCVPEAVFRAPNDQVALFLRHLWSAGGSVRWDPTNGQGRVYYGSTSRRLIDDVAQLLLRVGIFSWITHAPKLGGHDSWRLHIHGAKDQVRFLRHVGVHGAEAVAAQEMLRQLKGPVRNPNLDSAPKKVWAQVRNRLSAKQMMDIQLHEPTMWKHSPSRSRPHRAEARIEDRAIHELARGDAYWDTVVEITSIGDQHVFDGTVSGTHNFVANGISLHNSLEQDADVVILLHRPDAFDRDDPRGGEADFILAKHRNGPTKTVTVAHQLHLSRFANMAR
Briefly: DnaB intein splicing inhibitors, dose response, biochemical, cell-free fluorescence (AID 449749). Format: functional.

The target in the next experiment is Beta-galactosidase (Escherichia coli, UniProt Q8VNN2). Briefly: PubChem AID 485352. It is filed as functional.
Experiment [5] deals with G-protein coupled receptor 55 (Homo sapiens, UniProt Q9Y2T6). Briefly: inhibition of LPI-stimulated GPR55 beta-arrestin translocation – imaging, U2OS, beta-arrestin-GFP, LPI agonist, primary screen (AID 2013).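 Also: antagonist potency measured as reduced agonist-driven arrestin aggregation.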 Format: functional.
A short description of experiment [6]: general mammalian cell viability loss – inhibitor set, cherry-pick, set 2, cytotoxicity control for miR-122 modulator project, dose response (AID 720697). Format: functional, cell-based.
A short description of experiment [7]: NIH3T3 cell viability loss – ATP luminescence, mouse fibroblasts, counter-screen, dose response (AID 2010).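 Also: cells exposed to compound for about 90 hours before reading.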 Format: functional, cell-based. In general terms: A counterscreen serves to expose hits that act by an unwanted route or on another target.
A short description of experiment [8]: general mammalian cell viability loss – activator set, cherry-pick, cytotoxicity control for miR-122 modulator project, dose response (AID 720690).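 Also: HEK293T human cells scored for general mammalian cytotoxicity.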 It is filed as functional, cell-based.
A short description of experiment [9]: blockers of bursicon-stimulated LGR2 cAMP reporter – cell-based, HEK293, CRE-luciferase reporter, cherry pick, set 2, dose response (AID 743343).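 Also: transfected cells were stimulated with diluted bursicon conditioned medium after compound addition.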 It is filed as functional.
Experiment [10] can be described thus: Fluorescence-based cell-based high throughput dose response assay for inhibitors of the interaction of nucleotide-binding oligomerization domain containing 2 (NOD2) and the receptor-interacting serine-threonine kinase 2 (RIPK2). It is filed as functional. The conditions noted are these: Homo sapiens.
In experiment [11] the target is T3, Type-1 angiotensin II receptor (Homo sapiens, UniProt P30556).
T3 sequence (P30556 whole entry): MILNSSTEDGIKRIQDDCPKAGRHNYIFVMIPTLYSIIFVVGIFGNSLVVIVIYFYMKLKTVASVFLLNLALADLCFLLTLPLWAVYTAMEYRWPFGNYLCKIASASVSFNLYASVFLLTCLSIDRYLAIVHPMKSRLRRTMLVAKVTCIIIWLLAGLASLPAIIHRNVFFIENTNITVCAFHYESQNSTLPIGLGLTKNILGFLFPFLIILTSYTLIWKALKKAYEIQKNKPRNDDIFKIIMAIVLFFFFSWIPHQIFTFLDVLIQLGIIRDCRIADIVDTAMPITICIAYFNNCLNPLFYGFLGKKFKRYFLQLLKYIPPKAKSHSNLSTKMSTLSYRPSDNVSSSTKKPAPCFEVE
Briefly: antagonism of angiotensin II type 1 receptor – cell-based, uHTS hits, selectivity assay for APJ receptor antagonist project, dose response (AID 463214).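 Also: antagonist potency against angiotensin II stimulated AT1 response.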 Format: functional.

Experiment [12] is described as follows: activation of miR-122 Renilla sensor silencing – cell-based, Huh7 psiCHECK-miR122, Renilla luciferase, cherry-picked, dose response (AID 651956).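 Also: huh7 hepatoma cells stably carrying a psiCHECK-2 miR-122 sensor plasmid; renilla luciferase signal reporting endogenous miR-122 activity after 48 h compound exposure.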 Format: functional.
The nature of experiment [13]: blockade of melanocortin 4 receptor signaling – cell-based, plate reader, cherry pick, counter-screen for LGR2 antagonist project, dose response (AID 743444).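 Also: transfected HEK 293 cells stimulated with alpha-MSH peptide; potency of inhibitors of the alpha-MSH evoked signal.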 Format: functional.
Experiment [14] is described as follows: toxicity toward HepG2 liver cells – cell-based, plate reader, cherry-pick, antagonist series, cytotoxicity control, dose response (AID 743416). It is filed as functional.
In the next experiment the target is Beta Lactamase (Pseudomonas aeruginosa, UniProt Q932Y6). Briefly: BLA reporter interference, concentration series – BLA reporter cells, FRET fluorescence, artefact control for NOD2-RIPK2 interaction inhibitor project, dose response (AID 651552). Format: functional, cell-based.
The target of experiment [15] is T4, Sentrin-specific protease 8 (Homo sapiens, UniProt Q96LD8).
T4 sequence (Q96LD8 whole entry): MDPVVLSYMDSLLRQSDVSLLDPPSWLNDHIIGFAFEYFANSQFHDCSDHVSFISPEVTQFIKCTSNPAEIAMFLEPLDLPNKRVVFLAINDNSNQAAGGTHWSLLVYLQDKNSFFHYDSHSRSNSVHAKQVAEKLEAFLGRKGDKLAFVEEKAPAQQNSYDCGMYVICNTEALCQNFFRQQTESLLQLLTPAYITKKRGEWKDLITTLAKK
Format: functional.

Experiment [16] has as its target T4, Sentrin-specific protease 8. It is filed as functional. This is another data set of the same source.
In experiment [17] the target is T5, DNA repair protein RAD52 homolog (Homo sapiens, UniProt P43351).
T5 sequence (P43351 whole entry): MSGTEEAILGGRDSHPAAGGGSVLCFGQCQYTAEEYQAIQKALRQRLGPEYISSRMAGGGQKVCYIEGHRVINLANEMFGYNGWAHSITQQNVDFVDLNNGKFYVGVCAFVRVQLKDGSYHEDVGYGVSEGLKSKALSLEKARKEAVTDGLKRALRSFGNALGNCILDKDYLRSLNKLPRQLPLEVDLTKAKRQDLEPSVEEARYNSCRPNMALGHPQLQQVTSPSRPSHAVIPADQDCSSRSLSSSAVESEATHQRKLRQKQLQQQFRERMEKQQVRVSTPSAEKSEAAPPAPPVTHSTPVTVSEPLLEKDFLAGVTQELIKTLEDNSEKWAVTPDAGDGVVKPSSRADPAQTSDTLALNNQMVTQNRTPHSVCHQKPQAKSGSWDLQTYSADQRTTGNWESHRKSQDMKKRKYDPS
Format: functional, biochemical.

The target of experiment [18] is T6, DNA repair and recombination protein RAD54-like (Homo sapiens, UniProt Q92698).
T6 sequence (Q92698 whole entry): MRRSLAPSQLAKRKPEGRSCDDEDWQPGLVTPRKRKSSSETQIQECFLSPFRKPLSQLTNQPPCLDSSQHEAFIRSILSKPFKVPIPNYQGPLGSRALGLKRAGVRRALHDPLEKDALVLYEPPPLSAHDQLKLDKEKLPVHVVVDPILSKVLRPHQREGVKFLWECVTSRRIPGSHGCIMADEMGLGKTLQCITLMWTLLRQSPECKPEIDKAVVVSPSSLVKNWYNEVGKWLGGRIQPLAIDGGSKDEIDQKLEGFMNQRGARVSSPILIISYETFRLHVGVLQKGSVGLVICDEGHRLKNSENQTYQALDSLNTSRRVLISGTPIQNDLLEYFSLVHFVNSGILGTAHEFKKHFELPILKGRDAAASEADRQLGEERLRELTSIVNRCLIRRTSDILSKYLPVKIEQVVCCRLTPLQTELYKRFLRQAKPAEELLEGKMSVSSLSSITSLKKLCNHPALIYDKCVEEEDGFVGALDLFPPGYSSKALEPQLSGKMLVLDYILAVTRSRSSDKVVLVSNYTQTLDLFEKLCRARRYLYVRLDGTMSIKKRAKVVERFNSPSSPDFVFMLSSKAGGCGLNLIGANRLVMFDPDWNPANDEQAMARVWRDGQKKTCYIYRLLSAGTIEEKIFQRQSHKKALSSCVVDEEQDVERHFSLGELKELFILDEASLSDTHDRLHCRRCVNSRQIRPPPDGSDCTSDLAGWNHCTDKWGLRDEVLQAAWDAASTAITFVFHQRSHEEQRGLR
Nature of the experiment: RAD54 Holliday junction migration blockers – biochemical, fluorescence, cherry-picked samples, dose series, confirmation (AID 651657). It is filed as functional.

Experiment [19] can be described thus: cytotoxicity toward MDA-MB-231 breast cancer cells – cell-based, CellTiter-Glo luminescence, cherry-pick, cytotoxicity control for RAD54 inhibitor project, dose response (AID 651692). It is filed as functional. A general note: ATP-based viability assays read luminescence as a measure of living cells.
A further experiment has as its target Troponin, cardiac muscle (Homo sapiens, UniProt P19429+P45379+P63316). Nature of the experiment: Fluorescence-based biochemical high throughput dose response assay for activators of the calcium sensitivity of cardiac Regulated Thin Filaments (RTF). [Related pubchem assays (depositor defined):AID493008, AID493018, AID504382, AID504383]. It is filed as protein-complex assay.

The target of experiment [20] is T7, Sentrin-specific protease 1 (Homo sapiens, UniProt Q9P0U3). Nature of the experiment: SENP1 catalytic domain blockers, concentration series – biochemical, kinetic FRET, dose response (AID 651697). Conditions: read-out: IC50_Mean. It is filed as functional.
Experiment [21] has as its target T7, Sentrin-specific protease 1. Nature of the experiment: Dose response confirmation of small molecule inhibitors of the catalytic domain of the SUMO protease, SENP1 in a FRET assay. It is filed as functional. Conditions: read-out: IC50_Mean.

Molecules are shown by their SMILES. Activity calls are given as the source filed them.

What is called AC50 is the midpoint of the concentration-response curve, whichever way the signal moves. As a reminder, the EC50 is the concentration that produces a half-maximal response. For `CNC(=O)c1nnsc1S(=O)(=O)c1ccc(Cl)cc1`, the concentration at half-maximal activity (AC50) is 7.5 µM (active) in experiment [1]; 8.58 µM (active) in experiment [3]; 15.3 µM (active) in [4]; 4.54 µM (active) in experiment [6]; 2.7 µM (active) in experiment [8]; 3.74 µM (active) in experiment [9]. Moreover, the AC50 was 18.8 µM (active) in experiment [12], 3.28 µM (active) in experiment [13] and 7.37 µM (active) in experiment [14]. Also, the concentration giving a half-maximal response (EC50) in experiment [2] was 1.24 µM (active); on Protein RecA, 14.3 µM (active); on Beta-galactosidase, > 40 µM (inactive); in [7], 2.47 µM (active). Besides, the IC50 was 10.6 µM (inactive) in experiment [5], 2.13 µM (active) in experiment [10], 9.67 µM (active) in experiment [11] and 11.3 µM (inactive) on Beta Lactamase.

Regarding `Cn1cnc2c(O)ncc([N+](=O)[O-])c21`, the results for the IC50 in experiment [15] and in experiment [16] were > 100 µM (inactive) and 10.4 µM (active), respectively.

On to `CN(C)CCCNc1cc(-c2ccccc2)nc2cc(-c3cccc(F)c3)nn12`, for which the concentration at half-maximal activity (AC50) in [17] is 15.1 µM (active); in experiment [18], 21.1 µM (active); in [19] it was 24.4 µM (active).

In the case of `CC(=O)Oc1ccc(N2C(=O)C3C(C2=O)C(C(=O)c2ccc(Cl)cc2)N2CCCC32)cc1` (stereo not given), on Troponin, cardiac muscle, the EC50 was 23.5 µM (inactive). In addition, the IC50 is 7.5 µM (active) in experiment [20] and 4.65 µM (active) in experiment [21].
